Measured values as given in patent US10149836B2, “Isoxazole treatments for frontotemporal dementia” (The Board of Regents of the University of Texas System, priority 2014, dated 2018).

Key:
[1] = test system: progranulin promoter; assay: Luciferase reporter assay in Neuro2A #48 cells (human GRN start codon fused to firefly luciferase); format: cell-based, mouse; settings: for Luciferase activity over DMSO control: Neuro2A #48 cells, 24 hrs after compound addition, increasing concentrations
Method: Plasmids and Cell Lines. The firefly luciferase coding sequence was fused by bacterial recombination to the authentic human GRN start codon in exon 2 (NM_002087.2) on a bacterial artificial chromosome (BACPAC RP11-812N09), and stably transfected Neuro-2a cells were derived.
Library Screening and Luciferase Reporter Assays. Neuro-2a cells were assayed in 384-well plates (3000 cells/well). 6 hrs after cell plating, 1200 Prestwick Chemical Library® compounds in DMSO, including internal controls, were dispensed using a BioMek FX system to final concentrations of 2.5 μM compound and 1% DMSO (unless indicated otherwise). Sodium butyrate (9 mM) was used as a positive control on each plate for initial screening. Luciferase activity was measured 24 hr after compound addition using Bright-Glo™ reagent (20 μl/well; Promega). Each well was normalized to the average luminescence from DMSO-treated wells on the same plate.
Technical details of HTS screen. Cell type used: Neuro-2a #48 cell line was cultured in DMEM (High glucose)/10%FBS/Pen-Strep/Zeocin (200 μg/mL) and plated in same media without Zeocin. All media is sterile filtered before use. The firefly luciferase coding sequence was fused by bacterial recombination to the authentic human GRN start codon in exon 2 (NM_002087.2) on a bacterial artificial chromosome (BACPAC RP11-812N09), and stably transfected Neuro-2a cells were derived (Cenik et al., 2011). Cells are put into single cell suspension and strained with 70 μm cell strainers before counting. The concentration of cells is adjusted to 150,000 cells/ml.
384 well plates were used for the assay: 50 μL of the cell suspension are added to each well for a final cell number per well of 7,500. Plates are spun down after plating and incubated at 37° C. under 5% CO2. Compound addition takes place 4 hours after plating. Test compounds are in columns 3-22. The vehicle control wells are in columns 2 and 23. The positive control, SAHA (3 μM), is plated in column 1 An untreated control (no DMSO) is in column 24. The plates are assayed for reporter activity 24 hrs after compound addition. All media is spun out of the plates and 20 μL of bright glo is added to each well and placed on shaker for 3-5 minutes. After shaking, plates are read and check from increases in activation over DMSO. Vehicle (DMSO) was used for baseline because it causes a slight activation of luciferase construct. […] All compounds were added from DMSO stocks and added at 0.5 μL per well (1% DMSO). All plates are read on an EnVision multilabel plate reader in luminescence mode. The data is then parsed into GeneData Screener v11 and quality controlled visually. Z′ values are calculated using the DMSO and SAHA controls. Plates that have a Z′ value less than 0.45 are further scrutinized. If the latter show systematic effects or if known errors occurred in these plates, they are repeated in a separate experiment. Data are then normalized and analyzed as previously described (Kim et al., 2013).

[2] = test system: Progranulin; assay: Progranulin protein expression in primary rat neurons (immunoblot, densitometric quantitation); format: cell-based; settings: 24 hours, two concentrations
Method: FIGS. 1A-B. Neuro2A #48 cells show a marked increase in Progranulin levels due to Isoxazole treatment after 24 hours. (FIG. 1A) Cells were treated with Isoxazole in increasing concentrations ranging from 10 nM to 25 μM. […] (FIG. 1B) Primary rat neurons were treated for 24 hours with DMSO and two concentrations of Isoxazole to visualize the increase in Progranulin protein expression in the relevant in vivo cell type. […] Lower band: actin control. Bands at ˜75 kDa: Progranulin monomer. HMW bands: Progranulin multimers. Densitometric quantitation is shown on the right.
Immunoblotting and Quantification. […] Mouse progranulin was detected with linker-3 anti-progranulin antibody at 1:5000 dilution, β-actin with anti-β-actin antibody (Sigma A2228) at 1:5000 dilution, human progranulin with anti-PC cell-derived growth factor antibody (Invitrogen) at 1:1000 dilution, and GAPDH with anti-GAPDH antibody (Sigma) at 1:10,000 dilution. Bound IgG was detected by ECL. For quantitative immunoblotting, secondary antibodies labeled with IRDye® infrared dyes and an Odyssey® infrared imager (LI-COR Biosciences) were used following the manufacturer's instructions.

[3] = test system: progranulin; assay: RT PCR of progranulin mRNA and pre-mRNA in Neuro2A cells; format: cell-based, mouse; settings: 48 hours, increasing concentrations
Method: FIG. 2. Neuro2A cells were treated for 48 hours with increasing concentrations of Isoxazole. RT PCR was conducted to measure increases in progranulin mRNA and pre-mRNA (hnRNA before splicing).
RNA Extraction and Quantitative PCR. Cells in 6-well plates were lysed in 500 μl of TRIzol® reagent/well. cDNA was reverse-transcribed with MultiScribe™ (Applied Biosystems). For some experiments, the Quick-RNA MiniPrep system (Zymo Research, Irvine, Calif.) was used to isolate total RNA. Primer sequences were as follows:
Quantitative PCRs (qPCRs; 10 μl) contained 20 ng of cDNA, 150 nM primer, and 5 μl of Fast SYBR Green PCR Master Mix (Applied Biosystems) and were performed in triplicate on an Applied Biosystems PRISM 7500 Fast sequence detection system. Relative mRNA levels were calculated using U36B or cyclophilin Q primers as internal controls.

[4] = test system: progranulin (PGRN); assay: Progranulin (PGRN) protein expression in Neuro2a whole cell lysates by immunoblotting; format: cell-based, mouse; settings: Neuro2a cells, 48 hours; for PGRN levels compared to DMSO: highest concentrations, N=4; for progranulin protein levels by immunoblotting: increasing doses, whole cell lysates
Method: FIG. 6. Protein analysis using immuoblotting. Neuro2a cells were treated with in increasing doses for 48 hours and whole cell lysates were analyzed for progranulin (PGRN) protein expression using immunobloting. N=4.
FIG. 7. Graphical analysis of protein quantification using immunoblotting. Whole cell lysates were analyzed for progranulin (PGRN) protein expression using immunoblotting and were graphically plotted to show changes in band intensity. PGRN levels doubled compared to DMSO at the highest concentrations. N=4.
Immunoblotting and Quantification. Cells were lysed in radioimmune precipitation assay buffer (50 mM Tris-HCl (pH 7.4), 150 mM NaCl, 1 mM EDTA, 1% Triton X-100, 1% sodium deoxycholate, 0.1% SDS, and Roche Complete protease inhibitor mixture) and cleared by centrifugation at 20,000×g for 10 min. 0.5-ml cell culture supernatants containing 1% FBS were concentrated by centrifugation at 14,000×g for 50 min in Millipore Amicon Ultra devices (3-kDa cutoff). 15-20 μg of total protein was separated by SDS-PAGE and transferred to nitrocellulose membranes. Membranes were blocked in 5% milk for 1 hr and probed overnight with primary antibodies at 4° C. Mouse progranulin was detected with linker-3 anti-progranulin antibody at 1:5000 dilution, β-actin with anti-β-actin antibody (Sigma A2228) at 1:5000 dilution, human progranulin with anti-PC cell-derived growth factor antibody (Invitrogen) at 1:1000 dilution, and GAPDH with anti-GAPDH antibody (Sigma) at 1:10,000 dilution. Bound IgG was detected by ECL. For quantitative immunoblotting, secondary antibodies labeled with IRDye® infrared dyes and an Odyssey® infrared imager (LI-COR Biosciences) were used following the manufacturer's instructions.

[5] = test system: Progranulin MEF cells; assay: Lysosome rescue (lysotracker) in Progranulin MEF cells; format: cell-based, mouse; settings: one concentration, one trial
Method: FIGS. 8A-8F. Dose Tested for Lysosome Rescue. Progranulin MEF cells were treated with 1 concentration each of C15 and C19 and levels of lysotracker were analyzed to look for reduction of lysosome levels back to wild type levels. The stained area per cell is measured for compound C15 (FIG. 8A) and C19 (FIG. 8B), area intensity for compound C15 (FIG. 8C) and C19 (FIG. 8D), and total number of lysosomes for compound C15 (FIG. 8E) and C19 (FIG. 8F).
Progranulin MEF cells were treated with one aliquot each of C15 and C19 and levels of lysotracker were analyzed to look for reduction of lysosome levels back to wild type levels.

Compound	Luciferase activity over DMSO control [1]	PGRN levels compared to DMSO [4]	progranulin protein levels by immunoblotting [4]	also measured
CCCCCCCCCCCCC/C=C/[C@@H](O)[C@@H](N)COP(=O)([O-])OCC[N+](C)(C)C [sphingosinephosphorylcholine, reference compound]	increasing levels of luciferase activity over DMSO control	–	–	–
c1cnoc1 [Isoxazole]	significant increase over control	–	–	Progranulin protein levels vs DMSO control [2]: significant increase over the DMSO control; progranulin mRNA [3]: significant increases in a dose dependent manner; progranulin pre-mRNA (hnRNA before splicing) [3]: significant increases in a dose dependent manner
COc1ccccc1C(=O)NNC1C(=O)Nc2ccccc21 (stereo not shown) [Compound C15]	dose dependent increase in luciferase activity	doubled	increased progranulin protein levels	–
CC(C)(C)c1cc2c(c(C(C)(C)C)c1)OC(c1cccc([N+](=O)[O-])c1O)N2 (stereo not shown) [Compound C19]	only a small change	doubled	increased progranulin protein levels	lysosome levels (lysotracker) [5]: marked decrease in lysosome levels
O=C(CCCCCCC(=O)Nc1ccccc1)NO [SAHA, reference compound]	–	–	–	Activation of luciferase reporter relative to base line (DMSO) ([1]; Neuro-2a #48 cells, SAHA 3 μM positive control, 24 hrs): 4-5 times base line
